In US4200755A, “2-Hydro xy-5-[1-hydroxy-2-[4-(2-oxo-1-benzimidazolinyl)piperidino]ethyl]benzoic acid derivatives” (Richardson-Merrell Inc., priority 1979, dated 1980):
Where a name gives a salt, the structure may show the parent alone.

Legend:
[1] = test system: isolated guinea pig ileum preparation; assay: Direct spasmolytic activity in vitro, isolated guinea pig ileum preparation, barium chloride as agonist; type: cell-based
Experimental: (§1) The following Example is illustrative of the α and β-adrenergic blocking activity and the direct spasmolytic activity for the compounds of this invention.
Direct spasmolytic activity is determined in vitro by performing cumulative dose response experiments in the isolated guinea pig ileum preparation using barium chloride as the agonist. The contractile response of the guinea pig ileum preparation in the presence of logarithmically increasing concentrations of the compounds being tested are expressed as percent of the maximal attainable response. Relative antagonistic potency is expressed as a pA2 value, as defined above.

α-adrenergic receptor = assay: α-Adrenergic receptor blocking activity in vitro, isolated rabbit aortic strip preparation, norepinephrine as agonist; type: cell-based
Experimental: as §1
α-Adrenergic receptor blocking activity is determined in vitro by performing cumulative dose-response experiments in the isolated rabbit aortic strip preparation using norepinephrine as the agonist. The contractile response of the rabbit strip preparation in the presence of logarithmically increasing concentrations of the compounds being tested are expressed as percent of the maximal attainable response. Relative antagonistic potency is expressed as a pA2 value.

β-adrenergic receptor = biological target: T1, β-adrenergic receptor (Cavia porcellus, UniProt H0W3H1); assay: β-Adrenergic receptor blocking activity in vitro, isolated guinea pig atria preparation, isoproterenol as agonist; type: cell-based; settings: isolated guinea pig atria (increase in rate), read-out: pA2 β (converted)
T1 construct: isolated guinea pig atria preparation; from tissue; host or cells: guinea pig atria
Experimental: as §1
β-Adrenergic receptor blocking activity is determined in vitro by performing cumulative dose-response experiments in the isolated guinea pig atria preparation using isoproterenol as the agonist. The response (increase in rate) of the guinea pig atria preparation in the presence of logarithmically increasing concentrations of the compounds being tested are expressed as percent of the maximal attainable response. Relative antagonistic potency is expressed as a pA2 value, as defined above.

[2] = test system: spontaneously hypertensive rats (SHR); assay: Antihypertensive activity in spontaneously hypertensive rats (SHR), systolic blood pressure; type: in vivo, rat (SHR, Okomoto-Aoki strain); settings: oral 50 mg/kg
Experimental: The following Example illustrates the antihypertensive activity for the compounds of this invention. Antihypertensive activity is determined in spontaneously hypertensive rats (SHR) of the Okomoto-Aoki strain. Systolic blood pressure of the SHR is measured from the caudal artery by means of an indirect method utilizing a photocell transducer/tail cuff occluder system. Time response relationships are determined for each compound following an oral dose of 50 mg/kg. Data are expressed as mm of Hg decrease from control values. Statistical significance is determined using a 2 tailed "t" test comparing drug treatment response values to those obtained from concurrent vehicle treated animals.

T1 sequence (H0W3H1 1-470): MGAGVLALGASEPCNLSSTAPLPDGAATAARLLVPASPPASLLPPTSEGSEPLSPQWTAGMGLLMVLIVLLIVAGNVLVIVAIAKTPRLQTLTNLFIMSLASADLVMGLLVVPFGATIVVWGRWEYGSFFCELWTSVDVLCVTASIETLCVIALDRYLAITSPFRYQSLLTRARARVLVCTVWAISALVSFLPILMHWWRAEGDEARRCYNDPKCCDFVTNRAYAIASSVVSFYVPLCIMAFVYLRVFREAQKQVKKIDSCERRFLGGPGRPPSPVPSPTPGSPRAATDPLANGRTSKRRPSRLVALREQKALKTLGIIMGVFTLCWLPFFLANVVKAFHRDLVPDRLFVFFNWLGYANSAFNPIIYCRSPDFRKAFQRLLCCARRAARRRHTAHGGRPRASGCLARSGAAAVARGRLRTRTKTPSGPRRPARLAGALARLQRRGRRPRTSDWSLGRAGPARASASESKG

SMILES: COC(=O)c1cc(C(O)CN2CCC(n3c(=O)[nH]c4ccccc43)CC2)ccc1O (stereo not drawn) [Compound 1, methyl 2-hydroxy-5-[1-hydroxy-2-[4-(2-oxo-1-benzimidazolinyl)piperidino]ethyl]benzoate hydrochloride]
- pA2 BaCl2 (Direct Spasmolytic Activity) [1]: 5.90
- pA2 α (α-adrenergic receptor): 6.94
- Kb (β-adrenergic receptor): 1.95 µM

SMILES: NC(=O)c1cc(C(O)CN2CCC(n3c(=O)[nH]c4ccccc43)CC2)ccc1O (stereo not drawn) [Compound 2, 2-hydroxy-5-[1-hydroxy-2-[4-(2-oxo-1-benzimidazolinyl)piperidino]ethyl]benzamide hydrochloride monohydrate]
- pA2 BaCl2 (Direct Spasmolytic Activity) [1]: < 4.20
- pA2 α (α-adrenergic receptor): 6.70
- Kb (β-adrenergic receptor): 3.55 µM

SMILES: CCNC(=O)c1cc(C(O)CN2CCC(n3c(=O)[nH]c4ccccc43)CC2)ccc1O (stereo not drawn) [Compound 3, 2-hydroxy-5-[1-hydroxy-2-[4-(2-oxo-1-benzimidazolinyl)piperidino]ethyl]-N-ethylbenzamide hydrochloride]
- lowers blood pressure (decrease from control values) ([2]; after 1 hour): 22 mm Hg
- lowers blood pressure (decrease from control values) ([2]; after 4 hours): 51 mm Hg
- pA2 BaCl2 (Direct Spasmolytic Activity) [1]: 5.16
- pA2 α (α-adrenergic receptor): 6.63
- Kb (β-adrenergic receptor): > 4.17 µM

SMILES: Cc1ccc(N(CC2=NCCN2)c2cccc(O)c2)cc1 [phentolamine, reference compound]
- Kb (β-adrenergic receptor): > 10 µM
